# Experimental data reported in a melting point compilation (Tetko et al.).
row,SMILES,melting point
1,O=C(O)CCCSSCCCC(=O)O,105 to 110 °C
2,CN(C)c1ccc(C2Nn3c(nnc3-c3ccc([N+](=O)[O-])cc3)S2)cc1 (centres undefined),176 °C
3,C#CC1(O)C=CC(O)(C#C)C=C1 (centres undefined),125 °C
4,Cc1nc(CO)c(C)o1,73 °C
5,O=[N+]([O-])c1cc2nccnc2cc1Br,221 to 227 °C
6,NS(=O)(=O)c1cc2c(cc1C(F)(F)F)NCNS2(=O)=O,272 °C
7,CCCCCCCCCCCC=CCCCCC(=O)O,29.8 °C
8,O=C1CC(=P(c2ccccc2)(c2ccccc2)c2ccccc2)C(=O)O1,167 °C
9,CCCCCCCCCCCCCCCCOCC(O)CO (centres undefined),64 °C
10,CC(C)(C)OC(=O)NC(CO)C(=O)O (centres undefined),90.5 °C
11,O=[N+]([O-])c1ccc(F)c2nonc12,52 °C
12,O=S(=O)(O)NC1CCCCC1,170 °C
13,O=C1Cc2cc(Br)ccc2N1,219 to 221 °C
14,CCCCCCCCCCCCCCCC=O,35 °C
15,Cn1nc(-c2ccc(C=O)s2)cc1C(F)(F)F,80 to 81 °C
16,Nc1ccc(Nc2ccc(N)cc2)cc1,158 °C
17,OC(c1ccccc1)(c1ccccc1)C(O)(c1ccccc1)c1ccccc1,184 to 186 °C
18,CS(=O)(=O)OCCC(=O)N1CCN(C(=O)CCOS(C)(=O)=O)CC1,175 °C
19,NCC(O)C(O)C(O)C(O)CO (centres undefined),127 °C
20,O=[N+]([O-])c1c2c(c([N+](=O)[O-])c3c1CCCN3)NCCC2,187 °C
21,c1ccc(-c2oc(-c3ccccc3)c3ccccc23)cc1,135 °C
22,CC(C=O)=CN,101 to 103 °C
23,Cc1cc(C)n(CN(CCO)Cn2nc(C)cc2C)n1,82 to 84 °C
24,C=COCCCC,-92 °C
25,Nc1c(Br)cc(C2CCCCC2)cc1Br,37 to 38 °C
26,COc1ccc(OC)c(/C=N/n2c(S)nnc2C(F)(F)F)c1,145 °C
27,CC12CCC(C3(CCC(=O)O3)C1=O)C2(C)C (centres undefined),207 °C

row,SMILES,melting point
1,O=C1NC(=S)NC(=O)C1=NNc1ccc(Br)cc1,268 °C
2,CNC(=O)ON=C(CSC)C(C)(C)C,57 °C
3,CC(=O)Nc1ccc([N+](=O)[O-])c(C(F)(F)F)c1,108 to 109 °C
4,Cc1c(Cl)c(=O)oc2cc(OP(=O)(OCCCl)OCCCl)ccc12,91 °C
5,CCCCC/C=C\Br,-98 °C
6,ClC1=C(Cl)C(Cl)(C2(Cl)C(Cl)=C(Cl)C(Cl)=C2Cl)C(Cl)=C1Cl,122 °C
7,CC(=O)C1CCC2C3CCC4CC(=O)CCC4(C)C3CCC12C (centres undefined),200 °C
8,CC1(C)CC(N)CC(C)(C)N1,17 °C
9,CCc1cccc(C)c1N(C(=O)CCl)C(C)COC (centres undefined),-40 °C
10,O=C(O)c1cc(Br)c(C(=O)O)cc1Br,315 to 318 °C
11,NC(=S)Cn1cnc(Cl)c1Cl,204 to 207 °C
12,O=[N+]([O-])c1ccc(N2CCOCC2)cc1,152 °C
13,CCCCC#CCCCCC,-74.1 °C
14,O=Cc1ccc2ccc3cccc4ccc1c2c34,127 °C
15,CN(C)CC(O)Cn1c2ccc(Br)cc2c2cc(Br)ccc21 (centres undefined),153 to 154 °C
16,COc1ncc(F)c2nc(S(=O)(=O)Nc3c(F)cccc3F)nn12,194 °C
17,Oc1ccc(-n2ccnc2)cc1,204 to 206 °C
18,N#Cc1sc(Br)c2c1OCCO2,149 to 150 °C
19,O=c1cc[nH]c(=O)[nH]1,338 °C
20,C=CC(Cl)CCl (centres undefined),-61 °C
21,CC(=O)OC1CCC2(C)C(CC(=O)C3C2CC(OC(C)=O)C2(C)C(C(C)CCC(=O)O)CCC32)C1 (centres undefined),105 to 107 °C
22,c1cc2c(cc1CN1CCNCC1)OCO2,43 °C
23,N[C@@H]1CCCC[C@H]1N,40 to 45 °C
24,COC(=O)C(C)Cl (centres undefined),-10 °C
25,C=C(C)C1CCC2(C)CCC3(C)C(CCC4C5(C)CCC(O)C(C)(C)C5CCC43C)C12 (centres undefined),216 °C
26,CCCCCCCCCCCCCCCCCC(=O)OCCC(C)C,25.5 °C

# Next, values leading:
row,melting point,SMILES
1,87 °C,COc1cc(C)ccc1S(=O)(=O)Cl
2,73 °C,Clc1ccc(-c2c(Cl)cc(Cl)c(Cl)c2Cl)c(Cl)c1
3,295 °C,COc1cc(O)c2c(=O)c(O)c(-c3ccc(O)c(O)c3)oc2c1
4,219 °C,CCOC(=O)C(C#N)=NNc1ccc(C(=O)O)cc1
5,206 °C,CC12CCC(CC(Br)c3ccccc3)(OC1=O)C2(C)C (centres undefined)
6,167 °C,COc1cccc(C2NC(=O)NC(C)=C2C(=O)OC(C)C)c1OC (centres undefined)
7,186 to 188 °C,COc1ccc(C=C(CC(=O)O)C(=O)O)cc1
8,215 °C,O=[N+]([O-])c1ccccc1/C=C/c1nc2ccccc2[nH]1
9,260 to 261 °C,CCOC(=O)c1cn[nH]c1NC(=O)Nc1ccc(Cl)cc1
10,98 to 102 °C,CCCC(=O)Oc1c[nH]c2cc(Cl)ccc12
11,185 °C,Cc1ccc(C2C(C#N)=C(N)Oc3[nH]nc(C(F)(F)F)c32)cc1 (centres undefined)
12,160 °C,COc1ccc2c(=O)c3ccccc3oc2c1CN1CCCCC1
13,40 °C,O=C(NCc1ccccc1)OCCO
14,248 to 252 °C,O=C1OC(=O)C23Cc4ccccc4CC12Cc1cc2c(cc1C3)CC2 (centres undefined)
15,180 °C,CNCCC(Oc1ccc(C(F)(F)F)cc1)c1ccccc1 (centres undefined)
16,66 °C,COC(OC)(C(=O)c1ccccc1)c1ccccc1
17,75 °C,Cc1ccccc1C1=Cc2ccccc2C2(OCCO2)O1
18,169 to 170 °C,Nc1ccc(S(=O)(=O)N2CCCCC2)cc1
19,-12 °C,CC(C)c1ccc(Br)cc1
20,61 °C,CC(C)CCOC(=O)c1cc([N+](=O)[O-])cc([N+](=O)[O-])c1
21,148 to 152 °C,O=C1CC[C@@H](COC(c2ccccc2)(c2ccccc2)c2ccccc2)O1
22,224 to 226 °C,O=C(O)c1cc(Br)cc(Br)c1
23,112 °C,COC(=O)C1(S(=O)(=O)c2ccc(Br)cc2)CCCCC1
24,65 to 66 °C,OCc1cccc(-c2cncnc2)c1
25,127 °C,CC(C)(C(=O)O)c1ccc(Cl)cc1
26,8 °C,CCOC(=O)CCC(=O)O

row,melting point,SMILES
1,-44.3 °C,CCCOC(=O)C(=O)OCCC
2,65 to 67 °C,O=C1C=C(/C=C/c2ccccc2)CCC1
3,98.5 °C,O=C(c1ccccc1)c1cccc(C(=O)c2ccccc2)c1
4,231 °C,O=C(O)c1ccnc(Cl)c1
5,108 to 109 °C,Cc1nccc(-c2cccc(N)c2)n1
6,128 to 130 °C,COc1ccc(CC(=O)O)cc1O
7,245 °C,Nc1nn2c(C(F)(F)F)cc(-c3cccs3)nc2c1/N=N/c1cccc([N+](=O)[O-])c1
8,85 °C,COc1ccccc1C(=S)N1CCCCC1
9,142 °C,CC(=O)Oc1ccccc1C(=O)O
10,79 to 81 °C,COC(=O)c1ccc(S(=O)(=O)Cl)n1C
11,42 to 47 °C,COC(=O)c1cocc1C(=O)OC
12,175 °C,N#Cc1c[nH]nc1N
13,140 °C,CC(=O)Nc1ccc(C(C)=O)cc1Br
14,47.5 °C,Cc1ccc(I)cc1N
15,72 °C,N#Cc1cc(I)ccc1F
16,70 °C,CC1CSC(C=Cc2ccccc2[N+](=O)[O-])S1 (centres undefined)
17,164 to 167 °C,COc1cc(OC)c(OC)cc1/C=C/C(=O)O
18,119 °C,CC1(C)C2CCC1(C)C(C(=O)O)C2CC(O)c1ccccc1 (centres undefined)
19,173 to 178 °C,Cc1cc2cc([N+](=O)[O-])ccc2[nH]1
20,167 to 168 °C,CS(=O)(=O)c1noc(-c2cccs2)c1C#N
21,81 to 83 °C,N#CCc1ccc(OS(=O)(=O)c2cc(Cl)cc(Cl)c2)cc1
22,105 to 108 °C,CCOC(=O)C(CCC(=O)O)(CCC(=O)O)C(C)=O
23,138 °C,Cc1c2ccccc2cc2ccc3ccccc3c12
24,-25 °C,CCOCCOC(=O)C=Cc1ccc(OC)cc1
25,136 to 137 °C,Cc1ccc(C(N)=NO)cc1
26,62 to 65 °C,CCc1[nH]c2ccccc2c1C

row,melting point,SMILES
1,97 to 98 °C,Clc1cccc2c(-c3ccccc3)c(-c3ccccc3)[nH]c12
2,120 °C,COc1ccc2c(c1)CC1(CCC(=O)C(C(=O)O)C1)C2=O (centres undefined)
3,165 to 167 °C,CCOC(=O)C(C#N)=CNc1ccccc1Cl
4,129 °C,COc1cc(I)cc(C=O)c1O
5,175 to 178 °C,NC(=S)c1ccc(Oc2ccc(C(F)(F)F)cn2)cc1
6,203 to 205 °C,CCN(CC)c1ccc2nc3c4ccccc4c(=O)cc-3oc2c1
7,222 °C,N#CC1C(=S)NC2(C(=O)Nc3ccccc32)C2=C1CCCC2 (centres undefined)
8,142 °C,O=CC=Cc1ccc([N+](=O)[O-])cc1
9,69 to 71 °C,N#Cc1ccc2sccc2c1
10,156 °C,COc1ccccc1NC(N)=S
11,102 to 103 °C,CC12CCC(/C(=C/N(Cl)c3ccccc3)C1=O)C2(C)C (centres undefined)
12,94 to 96 °C,Cc1c(C(=O)CBr)cnn1-c1ccccc1
13,223 to 227 °C,NC(CCc1ccccc1)CC(=O)O (centres undefined)
14,60 °C,CC(CN1c2ccccc2Sc2ccccc21)N(C)C (centres undefined)
15,226 °C,Cc1c(N/N=C(/C#N)c2nc(-c3ccccc3)cs2)c(=O)n(-c2ccccc2)n1C
16,206 °C,CC1(C)CC(=O)C(=NNc2ccc(O)cc2)C(=O)C1
17,85 to 86 °C,Cc1nc(-c2ccc(C(F)(F)F)cc2)sc1C(=O)Cl
18,138 °C,Oc1ccc2c(O)cccc2c1
19,188 °C,Cc1ccc(C(=O)N(NC(=O)c2ccccc2)C(C)(C)C)cc1
20,117 °C,COc1ccc2[nH]cc(CCNC(C)=O)c2c1
21,106 °C,CCOC(=O)C(C#N)=C1SCCS1
22,127 °C,Cc1ccc(C(C)C)c(O)c1C(=O)O
23,146 to 147 °C,Cc1cccn2c(=O)c(C(=O)c3ccccc3)cnc12
24,172 to 173 °C,Cc1ccc(C=C2C(N)=NC(=O)N=C2N)cc1
